Assay results: patent US8222404B2, “[1,2,4]Thiadiazin-3-yl acetic acid compound and methods of making the acetic acid compound” (Anadys Pharmaceuticals, Inc., priority 2008, dated 2012)

These compounds were tested on HCV Huh-luc/neo-ET replicon cells (assay: Luciferase-Based HCV Replicon Assay (EC50 (1b))). Details: Hepatitis C virus, 72 hours exposure, luciferase activity.
Type: cell-based
Outline: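 Replicon cells seeded, then exposed 24 h later to a compound concentration series in triplicate for 72 h. Luciferase luminescence read; % inhibition vs no-compound control, with 100 nM BILN-2061 as background, used to derive EC50 (1b).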
In the case of `CC(C)CCN1C(=O)C(C2=NS(=O)(=O)c3c(CNS(C)(=O)=O)csc3N2)=C(O)[C@@H]2C3CCC(CC3)[C@@H]21` [Example 71, N-{3-[(2S,7R)-6-Hydroxy-3-(3-methyl-butyl)-4-oxo-3-aza-tricyclo[6.2.2.0^2,7]dodec-5-en-5-yl]-1,1-dioxo-1,4-dihydro-1λ^6-thieno[2,3-e][1,2,4]thiadiazin-7-ylmethyl]-methanesulfonamide], the EC50 is reported as 5 to 20 nM. `COc1ccc(CN2C(=O)C(C3=NS(=O)(=O)c4c(CNS(C)(=O)=O)csc4N3)=C(O)[C@@H]3[C@H]4CC[C@H](C4)[C@@H]32)c(OC)c1` [Example 72, N-{3-[(1R,2S,7R,8S)-3-(2,4-Dimethoxy-benzyl)-6-hydroxy-4-oxo-3-aza-tricyclo[6.2.1.0^2,7]undec-5-en-5-yl]-1,1-dioxo-1,4-dihydro-1λ^6-thieno[2,3-e][1,2,4]thiadiazin-7-ylmethyl}-methanesulfonamide] was tested, and the EC50 was over 1000 nM. `COc1ccc(CN2C(=O)C(C3=NS(=O)(=O)c4c(CNS(C)(=O)=O)csc4N3)=C(O)[C@@H]3[C@@H]4CC[C@@H](C4)[C@@H]32)c(OC)c1` [Example 73, N-{3-[(1S,2S,7R,8R)-3-(2,4-Dimethoxy-benzyl)-6-hydroxy-4-oxo-3-aza-tricyclo[6.2.1.0^2,7]undec-5-en-5-yl]-1,1-dioxo-1,4-dihydro-1λ^6-thieno[2,3-e][1,2,4]thiadiazin-7-ylmethyl}-methanesulfonamide] was tested, and the EC50 was over 1000 nM. `COc1ccc(CN2C(=O)C(C3=NS(=O)(=O)c4c(CNS(C)(=O)=O)csc4N3)=C(O)[C@@H]3C4CCC(CC4)[C@@H]32)c(OC)c1` [Example 74, N-{3-[(2S,7R)-3-(2,4-Dimethoxy-benzyl)-6-hydroxy-4-oxo-3-aza-tricyclo[6.2.2.0^2,7]dodec-5-en-5-yl]-1,1-dioxo-1,4-dihydro-1λ^6-thieno[2,3-e][1,2,4]thiadiazin-7-ylmethyl}-methanesulfonamide] showed an EC50 of over 1000 nM. `COc1ccc(CN2C(=O)C(C3=NS(=O)(=O)c4c(CNS(C)(=O)=O)csc4N3)=C(O)[C@@H]3CCC[C@@H]32)c(OC)c1` [Example 77, (4aR,7aS)-N-{3-[1-(2,4-Dimethoxy-benzyl)-4-hydroxy-2-oxo-2,4a,5,6,7,7a-hexahydro-1H-[1]pyrindin-3-yl]-1,1-dioxo-1,4-dihydro-1λ^6-thieno[2,3-e][1,2,4]thiadiazin-7-ylmethyl}-methanesulfonamide] showed an EC50 of over 1000 nM. `CS(=O)(=O)NCc1csc2c1S(=O)(=O)N=C(C1=C(O)[C@@H]3[C@H]4CC[C@H](C4)[C@@H]3NC1=O)N2` [Example 80, N-[3-((1R,2S,7R,8S)-6-Hydroxy-4-oxo-3-aza-tricyclo[6.2.1.0^2,7]undec-5-en-5-yl)-1,1-dioxo-1,4-dihydro-1λ^6-thieno[2,3-e][1,2,4]thiadiazin-7-ylmethyl]-methanesulfonamide] showed an EC50 of over 1000 nM. With `CS(=O)(=O)NCc1csc2c1S(=O)(=O)N=C(C1=C(O)[C@@H]3[C@@H]4CC[C@@H](C4)[C@@H]3NC1=O)N2` [Example 81, N-[3-((1S,2S,7R,8R)-6-Hydroxy-4-oxo-3-aza-tricyclo[6.2.1.0^2,7]undec-5-en-5-yl)-1,1-dioxo-1,4-dihydro-1λ^6-thieno[2,3-e][1,2,4]thiadiazin-7-ylmethyl]-methanesulfonamide] the EC50 was over 1000 nM. In the case of `CS(=O)(=O)NCc1csc2c1S(=O)(=O)N=C(C1=C(O)[C@@H]3C4CCC(CC4)[C@@H]3NC1=O)N2` [Example 82, N-[3-((2S,7R)-6-Hydroxy-4-oxo-3-aza-tricyclo[6.2.2.0^2,7]dodec-5-en-5-yl)-1,1-dioxo-1,4-dihydro-1λ^6-thieno[2,3-e][1,2,4]thiadiazin-7-ylmethyl]-methanesulfonamide], the EC50 is reported as over 1000 nM. `CS(=O)(=O)NCc1csc2c1S(=O)(=O)N=C(C1=C(O)[C@@H]3CCC[C@@H]3NC1=O)N2` [Example 85, (4aR,7aS)-N-[3-(4-Hydroxy-2-oxo-2,4a,5,6,7,7a-hexahydro-1H-[1]pyrindin-3-yl)-1,1-dioxo-1,4-dihydro-1λ^6-thieno[2,3-e][1,2,4]thiadiazin-7-ylmethyl]-methanesulfonamide] showed an EC50 of over 1000 nM. `CS(=O)(=O)NCc1csc2c1S(=O)(=O)N=C(C1=C(O)[C@@H]3[C@H]4CC[C@H](C4)[C@@H]3N(Cc3ccc(F)c(F)c3)C1=O)N2` [Example 88, N-{3-[(1R,2S,7R,8S)-3-(3,4-Difluoro-benzyl)-6-hydroxy-4-oxo-3-aza-tricyclo[6.2.1.0^2,7]undec-5-en-5-yl]-1,1-dioxo-1,4-dihydro-1λ^6-thieno[2,3-e][1,2,4]thiadiazin-7-ylmethyl}-methanesulfonamide] gave an EC50 of at most 5 nM. In the case of `CS(=O)(=O)NCc1csc2c1S(=O)(=O)N=C(C1=C(O)[C@@H]3[C@@H]4CC[C@@H](C4)[C@@H]3N(Cc3ccc(F)cc3)C1=O)N2` [Example 89, N-{3-[(1S,2S,7R,8R)-3-(4-Fluoro-benzyl)-6-hydroxy-4-oxo-3-aza-tricyclo[6.2.1.0^2,7]undec-5-en-5-yl]-1,1-dioxo-1,4-dihydro-1λ^6-thieno[2,3-e][1,2,4]thiadiazin-7-ylmethyl}-methanesulfonamide], the EC50 is reported as at most 5 nM. `CS(=O)(=O)NCc1csc2c1S(=O)(=O)N=C(C1=C(O)[C@@H]3C4CCC(CC4)[C@@H]3N(Cc3ccc(F)cc3)C1=O)N2` [Example 91, N-{3-[(2S,7R)-3-(4-Fluoro-benzyl)-6-hydroxy-4-oxo-3-aza-tricyclo[6.2.2.0^2,7]dodec-5-en-5-yl]-1,1-dioxo-1,4-dihydro-1λ^6-thieno[2,3-e][1,2,4]thiadiazin-7-ylmethyl}-methanesulfonamide] gave an EC50 of at most 5 nM. For `CS(=O)(=O)NCc1csc2c1S(=O)(=O)N=C(C1=C(O)[C@@H]3C4CCC(CC4)[C@@H]3N(Cc3ccc(F)c(F)c3)C1=O)N2` [Example 92, N-{3-[(2S,7R)-3-(3,4-Difluoro-benzyl)-6-hydroxy-4-oxo-3-aza-tricyclo[6.2.2.0^2,7]dodec-5-en-5-yl]-1,1-dioxo-1,4-dihydro-1λ^6-thieno[2,3-e][1,2,4]thiadiazin-7-ylmethyl}-methanesulfonamide], the EC50 was at most 5 nM. `CC(C)(C)CCN1C(=O)C(C2=NS(=O)(=O)c3c(CNS(C)(=O)=O)csc3N2)=C(O)[C@@H]2C3CCC(CC3)[C@@H]21` [Example 93, N-{3-[(2S,7R)-3-(3,3-Dimethyl-butyl)-6-hydroxy-4-oxo-3-aza-tricyclo[6.2.2.0^2,7]dodec-5-en-5-yl]-1,1-dioxo-1,4-dihydro-1λ^6-thieno[2,3-e][1,2,4]thiadiazin-7-ylmethyl}-methanesulfonamide] gave an EC50 of at most 5 nM. `CS(=O)(=O)NCc1csc2c1S(=O)(=O)N=C(C1=C(O)[C@@H]3[C@H]4CC[C@H](C4)[C@@H]3N(Cc3ccc(F)cc3Cl)C1=O)N2` [Example 94, N-{3-[(1R,2S,7R,8S)-3-(2-Chloro-4-fluoro-benzyl)-6-hydroxy-4-oxo-3-aza-tricyclo[6.2.1.0^2,7]undec-5-en-5-yl]-1,1-dioxo-1,4-dihydro-1λ^6-thieno[2,3-e][1,2,4]thiadiazin-7-ylmethyl}-methanesulfonamide] was tested, and the EC50 was 20 to 100 nM. With `CS(=O)(=O)NCc1csc2c1S(=O)(=O)N=C(C1=C(O)[C@@H]3[C@@H]4CC[C@@H](C4)[C@@H]3N(Cc3ccc(F)c(Cl)c3)C1=O)N2` [Example 95, N-{3-[(1 S,2S,7R,8R)-3-(3-Chloro-4-fluoro-benzyl)-6-hydroxy-4-oxo-3-aza-tricyclo[6.2.1.0^2,7]undec-5-en-5-yl]-1,1-dioxo-1,4-dihydro-1λ^6-thieno[2,3-e][1,2,4]thiadiazin-7-ylmethyl}-methanesulfonamide] the EC50 was 20 to 100 nM. With `CS(=O)(=O)NCc1csc2c1S(=O)(=O)N=C(C1=C(O)[C@@H]3C4CCC(CC4)[C@@H]3N(Cc3ccc(F)cc3Cl)C1=O)N2` [Example 96, N-{3-[(2S,7R)-3-(2-Chloro-4-fluoro-benzyl)-6-hydroxy-4-oxo-3-aza-tricyclo[6.2.2.0^2,7]dodec-5-en-5-yl]-1,1-dioxo-1,4-dihydro-1λ^6-thieno[2,3-e][1,2,4]thiadiazin-7-ylmethyl}-methanesulfonamide] the EC50 was 20 to 100 nM. In the case of `CS(=O)(=O)NCc1csc2c1S(=O)(=O)N=C(C1=C(O)[C@@H]3[C@H]4CC[C@H](C4)[C@@H]3N(C3CCCCC3)C1=O)N2` [Example 97, N-[3-((1R,2S,7R,8S)-3-Cyclohexyl-6-hydroxy-4-oxo-3-aza-tricyclo[6.2.1.0^2,7]undec-5-en-5-yl)-1,1-dioxo-1,4-dihydro-1λ^6-thieno[2,3-e][1,2,4]thiadiazin-7-ylmethyl]-methanesulfonamide], the EC50 is reported as 100 to 1000 nM. With `CS(=O)(=O)NCc1csc2c1S(=O)(=O)N=C(C1=C(O)[C@@H]3[C@@H]4CC[C@@H](C4)[C@@H]3N(C3CCCCC3)C1=O)N2` [Example 98, N-[3-((1S,2S,7R,8R)-3-Cyclohexyl-6-hydroxy-4-oxo-3-aza-tricyclo[6.2.1.0^2,7]undec-5-en-5-yl)-1,1-dioxo-1,4-dihydro-1λ^6-thieno[2,3-e][1,2,4]thiadiazin-7-ylmethyl]-methanesulfonamide] the EC50 was 100 to 1000 nM. `CS(=O)(=O)NCc1csc2c1S(=O)(=O)N=C(C1=C(O)[C@@H]3CCC[C@@H]3N(C3CCCCC3)C1=O)N2` [Example 99, (4aR,7aS)-N-[3-(1-Cyclohexyl-4-hydroxy-2-oxo-2,4a,5,6,7,7a-hexahydro-1H-[1]pyrindin-3-yl)-1,1-dioxo-1,4-dihydro-1λ^6-thieno[2,3-e][1,2,4]thiadiazin-7-ylmethyl]-methanesulfonamide] was tested, and the EC50 was 100 to 1000 nM. With `CS(=O)(=O)NCc1csc2c1S(=O)(=O)N=C(C1=C(O)[C@@H]3[C@H]4CC[C@H](C4)[C@@H]3N(CC3CCCCC3)C1=O)N2` [Example 101, N-[3-((1R,2S,7R,8S)-3-Cyclohexylmethyl-6-hydroxy-4-oxo-3-aza-tricyclo[6.2.1.0^2,7]undec-5-en-5-yl)-1,1-dioxo-1,4-dihydro-1λ^6-thieno[2,3-e][1,2,4]thiadiazin-7-ylmethyl]-methanesulfonamide] the EC50 was 20 to 100 nM. In the case of `CS(=O)(=O)NCc1csc2c1S(=O)(=O)N=C(C1=C(O)[C@@H]3[C@@H]4CC[C@@H](C4)[C@@H]3N(CC3CCCCC3)C1=O)N2` [Example 102, N-[3-((1S,2S,7R,8R)-3-Cyclohexylmethyl-6-hydroxy-4-oxo-3-aza-tricyclo[6.2.1.0^2,7]undec-5-en-5-yl)-1,1-dioxo-1,4-dihydro-1λ^6-thieno[2,3-e][1,2,4]thiadiazin-7-ylmethyl]-methanesulfonamide], the EC50 is reported as 20 to 100 nM.
